Patent publication US20040180855A1, “Methods of treating thrombosis with reduced risk of increased bleeding times” (priority 2003, published 2004)

Tests used:
Human TF:FVIIa = biological target: T1, Human TF:FVIIa (Homo sapiens, UniProt P08709); assay: Selectivity assay TF:FVIIa; format: biochemical; conditions: Table 3
T1 construct: purchased Enzyme Research Labs (FVIIa); Dade (Innovin, tissue factor)
Protocol: Human TF:FVIIa activity was measured using isolated human FVIIa (Enzyme Research Labs) in the presence of recombinant human tissue Factor (Dade Innovin) in a buffer containing 20 mM HEPES, 150 mM NaCl, 5mM CaCl2, 1 mM CHAPS and 1 mg/mL PEG 6000 (pH to 7.4).

human factor Xa = biological target: T2, human factor Xa (Homo sapiens, UniProt P00742); assay: Selectivity assay factor Xa; format: biochemical; conditions: Table 3; read-out: IC50 (μM) FXa
T2 construct: Factor IXa then converts Factor X to Factor Xa; purchased Kabi Vitrum
T2 sequence (P00742 235-488 limits assumed): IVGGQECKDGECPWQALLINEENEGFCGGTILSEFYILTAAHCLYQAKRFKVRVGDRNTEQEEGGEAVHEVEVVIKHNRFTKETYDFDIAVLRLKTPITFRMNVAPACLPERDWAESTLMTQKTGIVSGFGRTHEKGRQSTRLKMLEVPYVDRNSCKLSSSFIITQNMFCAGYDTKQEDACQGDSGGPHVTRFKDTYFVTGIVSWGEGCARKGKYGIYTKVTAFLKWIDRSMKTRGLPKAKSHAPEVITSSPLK
T2 sequence (P00742 41-179 partner limits assumed): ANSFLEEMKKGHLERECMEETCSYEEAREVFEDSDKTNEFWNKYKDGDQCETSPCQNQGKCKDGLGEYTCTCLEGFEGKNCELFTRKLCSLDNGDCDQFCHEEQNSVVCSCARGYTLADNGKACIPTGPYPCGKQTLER

human plasma [1] = assay: PT clotting time, human plasma; format: biochemical; conditions: highest concentration tested 100 μM
Protocol: (§1) The term “PT” time as used herein refers to prothrombin times which is intended to refer to the time elapsed between formation of an assay solution and detection of clot formation in the assay solution with use of a PT assay, i.e., an assay employing thromboplastin reagents that are used for evaluating blood coagulation associated with the extrinsic pathway.
(§2) PT and APTT clotting times were determined as described in Balasubramanian et al., J. Med. Chem., Vol. 36 (1993), at pp. 300-03, incorporated herein by reference. The whole blood aggregation response of rat platelets to collagen was determined using the impedance procedure for a Model 560-CA Chrono-Log aggregometer (Havertown, Pa.).

human plasma [2] = assay: APTT clotting time, human plasma; format: biochemical
Excerpt: The term “APTT” as used herein means “activated partial thromboplastin times” which is intended to refer to the time elapsed between the formation of an assay solution and the detection of clot formation in the assay solution with use of an APTT assay, i.e., an assay employing an intrinsic pathway activator, such as micronized silica, and a phospholipid component of a thromboplastin reagent (without tissue factor protein) for evaluating coagulation associated with the intrinsic pathway.
as §2

rat plasma = assay: PT clotting time, rat plasma; format: biochemical; conditions: up to 100 μM
Protocol: as §1, §2

[3] = system: renal cortex bleeding time; assay: Renal cortex bleeding time (RCBT) model; format: in vivo; conditions: rat, i.v. 12+12 and 24+24 mg/kg+mg/kg/hr, pre- vs post-treatment, FIG. 5
Protocol: Experimental Bleeding Time Two models of bleeding time were performed, namely, a renal cortex bleeding model (using template incision of the renal cortex), and a mesenteric artery bleeding model (using severance of small mesenteric arteries).
In the renal cortex bleeding time (RCBT) model, both kidneys were exposed by a midline abdominal incision, and the renal capsules were removed to expose the bare renal cortex which was superfused with Ringer's solution maintained at 37° C. […] While observing under 3×-binocular magnifier, the time in sec from injury until bleeding stopped was recorded. Three bleeding times were determined on the right kidney before, and on the left kidney 15 min after, the start of test article infusion. […]
Statistical Analysis In the venous and arterial thrombosis procedures, treatment effects on thrombus weight, baseline blood flow, and average blood flow during thrombosis were determined by analysis of variance with Dunnett's test for comparison to the vehicle group. […] Treatment effects on bleeding times were determined by analysis of variance with Dunnett's test for comparison to the vehicle group. Both post-treatment and pre-treatment bleeding times and the relative bleeding time increases in sec were analyzed. […]

[4] = system: rat plasma (ex vivo APTT); assay: Ex vivo clotting time APTT; format: in vivo; conditions: for APTT Increase (X Control): average over 15-90 min
Protocol: Ex Vivo Clotting Times Ex vivo clotting time assays were used to determine the level of anticoagulation achieved in the thrombosis and bleeding time procedures, described above. A small organic compound for inhibiting Factor XIa was administered at doses (mg/kg+mg/kg/hr) of 0.5+0.5 (n=3), 2+2 (n=4), 6+6 (n=3), 12+12 (n=3) and 24+24 (n=10). Carotid artery blood (0.6 mL drawn into 1/10 volume of 3.8% Na-citrate) was sampled before (0 min control) and at 5, 15, 30, 60 and 90 min after the start of the compound infusion. The APTT was determined in freshly prepared plasma from each sample using the standard procedure for Dade Actin FSL reagent (Baxter Healthcare Corp., Miami, Fla.). The PT was determined in some animals from the 6+6 (n=3), 12+12 (n=3) and 24+24 (n=2) dose groups using Dade Thromboplastin●C reagent.
Plasma was sampled before (0 min control) and after the infusion, at intervals of 5, 15, 30, 60 and 90 min after initiating the infusion. Average APTT increases over the 15-90 min period, an interval most applicable to thrombosis and bleeding time protocols, were calculated. Control APTT values averaged 19.9±1.3 seconds overall. The PT was unaltered as expected from in vitro results. […] The range of efficacious doses in venous and arterial thrombosis (2+2, 6+6, 12+12; mg/kg+mg/kg/hr) produced an APTT increase of about 2.8 times control.

[5] = system: panel of 40 receptors and enzymes; assay: Panel of 40 receptors and enzymes (MDS Panlabs Pharmacology Services)

T1 sequence (P08709 213-466 limits assumed): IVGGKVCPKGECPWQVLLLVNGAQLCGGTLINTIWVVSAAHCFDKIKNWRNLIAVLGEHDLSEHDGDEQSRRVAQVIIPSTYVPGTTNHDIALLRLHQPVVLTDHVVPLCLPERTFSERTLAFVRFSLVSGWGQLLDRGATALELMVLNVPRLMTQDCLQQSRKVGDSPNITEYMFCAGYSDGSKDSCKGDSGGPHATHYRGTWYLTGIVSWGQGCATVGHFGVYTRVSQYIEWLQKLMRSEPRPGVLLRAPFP
T1 sequence (P08709 61-212 partner limits assumed): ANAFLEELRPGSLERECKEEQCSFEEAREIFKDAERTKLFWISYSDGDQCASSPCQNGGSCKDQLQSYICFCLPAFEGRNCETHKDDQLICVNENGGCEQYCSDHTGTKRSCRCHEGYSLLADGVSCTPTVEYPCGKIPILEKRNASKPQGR
T1 sequence (P13726 33-295 partner): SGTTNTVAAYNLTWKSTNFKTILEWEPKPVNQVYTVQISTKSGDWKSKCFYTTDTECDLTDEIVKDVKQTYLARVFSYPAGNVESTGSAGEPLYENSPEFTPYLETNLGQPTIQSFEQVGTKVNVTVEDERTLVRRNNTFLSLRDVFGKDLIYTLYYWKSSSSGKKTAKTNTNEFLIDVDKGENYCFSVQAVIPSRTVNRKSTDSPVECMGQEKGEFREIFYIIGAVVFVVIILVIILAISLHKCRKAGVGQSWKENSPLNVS

SMILES: CC(C)(C)NC(=O)N1CCN(C(=O)N2C(=O)[C@H](CCCNC(=N)N)[C@H]2C(=O)O)CC1 [Example 4]
- IC50 (Human TF:FVIIa): 0.486 µM
- IC50 (human factor Xa): > 33 µM
- Clotting time PT (human), concentration that doubles clotting time (human plasma [1]): >100 µM
- Clotting time APTT (human), concentration that doubles clotting time (human plasma [2]): 0.6 µM
- Clotting time PT (rat), concentration that doubles clotting time (rat plasma): >100 µM
- effect on renal cortex bleeding times [3]: no effect
- APTT Increase (X Control) ([4]; dose 0.5 + 0.5 mg/kg + mg/kg/hr): 1.57 ± 0.22 X Control
- APTT Increase (X Control) ([4]; dose 2 + 2 mg/kg + mg/kg/hr): 2.81 ± 0.21 X Control
- APTT Increase (X Control) ([4]; dose 6 + 6 mg/kg + mg/kg/hr): 2.73 ± 0.19 X Control
- APTT Increase (X Control) ([4]; dose 12 + 12 mg/kg + mg/kg/hr): 2.79 ± 0.26 X Control
- APTT Increase (X Control) ([4]; dose 24 + 24 mg/kg + mg/kg/hr): 3.29 ± 0.85 X Control
- APTT increase ([4]; range of efficacious doses 2+2, 6+6, 12+12 mg/kg+mg/kg/hr): about 2.8 times control
- inhibition or enhancement of receptor and enzyme activities [5]: No significant inhibition or enhancement
